For this data set the following is noted: Liquid, Ebulliometric method (Recirculating still).

The structures appear in SMILES notation. ± gives the expanded uncertainty stated by the source.

For the compound `CCCCCCCCCC(=O)OC` [methyl decanoate], the vapor or sublimation pressure (as a rule, the pressure of vapour in equilibrium with the condensed phase) (389.1 K) is 2 ± 0.2 kPa; the “vapor or sublimation pressure” value (412.93 K) was 6 ± 0.61 kPa; the “vapor or sublimation pressure” value (424.43 K) worked out at 10 ± 1 kPa.

Regarding `CCCCCCCC(=O)OC` [methyl octanoate], the “vapor or sublimation pressure” value reads like this: (356.53 K) 2 ± 0.2 kPa; (380.5 K) 6 ± 0.61 kPa; (391.77 K) 10 ± 1 kPa.

(Values after the NIST ThermoML archive (doi:10.1016/j.jct.2016.11.024).)
